From PMC11855827, “High-Throughput Screening of Five Compound Libraries for Anthelmintic Activity and Toxicity Leads to the Discovery of Two Flavonoid Compounds” (International Journal of Molecular Sciences, 2025)
“And” between values parts separate entries of the source, which are not always exact repeats. Equal entries are not always repeated. Where two headings read alike, the source gives them in different places.

System: C. elegans
[1] = Table S2, C. elegans SS assay, 110 μM, 0 h, averages of 4 data points
[2] = Table S2, C. elegans SS assay, 110 μM, 24 h, averages of 4 data points

Row | Compound | Percentage of motility inhibition 0 h [1] | Percentage of motility inhibition 24 h [2] [%] | Percentage of motility inhibition 0 h (110 µM) [%] | Percentage of motility inhibition 24 h (110 µM) [%]
1 | CC(C)=C[C@@H]1CO[C@]23C[C@]4(CO2)[C@H](CC[C@@H]2[C@@]5(C)CC[C@H](O[C@@H]6OC[C@H](O)[C@H](O[C@@H]7O[C@H](CO)[C@@H](O)[C@H](O)[C@H]7O)[C@H]6O[C@@H]6O[C@@H](CO)[C@H](O)[C@H]6O)C(C)(C)[C@@H]5CC[C@]24C)[C@H]3[C@@]1(C)O [Bacopasaponin C] | 6% | 40 |  | 
2 | CCNCc1nc2c(N)nc3ccccc3c2n1CC(C)(C)O.O=C(O)C(F)(F)F [Gardiquimod trifluoroacetate] | 33% | 0 |  | 
3 | CC1(COC(=O)c2ccccc2)CCC2(C)CCC3(C)C4=CCC5C(C)(CCC(OC(=O)c6ccccc6)C5(C)C)C4=CCC3(C)C2C1 (centres unmarked) [3,29-O-Dibenzoyloxykarounidiol] | 15% | 9 |  | 
4 | C[C@@H]1O[C@@H](O[C@H]2[C@H](O[C@H]3CC[C@@]4(C)[C@@H](CC[C@]5(C)[C@@H]4CC=C4[C@@H]6CC(C)(C)CC[C@]6(C(=O)O[C@@H]6O[C@H](CO[C@@H]7O[C@H](CO)[C@@H](O)[C@H](O)[C@H]7O)[C@@H](O)[C@H](O)[C@H]6O)CC[C@]45C)[C@]3(C)CO)OC[C@H](O)[C@@H]2O)[C@H](O)[C@H](O)[C@H]1O [Dipsacoside B] |  |  | 7 | 5
5 | COc1ccc2c(c1OC)O[C@H]1c3ccc(O[C@@H]4O[C@H](CO)[C@@H](O)[C@H](O)[C@H]4O)cc3OC[C@@H]21 [Methylnissolin‐3‐O‐glucoside] | 8% | 7 |  | 
6 | CCn1cc(C(=O)O)c(=O)c2cc(F)c(N3CCNCC3)nc21 [Enoxacin (hydrate)] | 17% | 0 |  | 
7 | Tarasaponin VI | 0% | 0 |  | 
8 | CC(=O)[C@H]1CC[C@H]2[C@@H]3CC=C4C[C@@H](OS(=O)(=O)[O-])CC[C@]4(C)[C@H]3CC[C@]12C.[Na+] [Pregnenolone monosulfate (sodium)] | 0% | 0 |  | 
9 | CC1(C)C2=CCCC(C)(C)[C@]23CC[C@H]1C3 [Isolongifolene] | 2% | 39 |  | 
10 | NCCCC[C@H](N)C(=O)O.O [L-Lysine hydrate] | 8% | 2 |  | 
11 | COc1cccc(OC)c1C(=O)N[C@@H]1C(=O)N2[C@@H]1SC(C)(C)[C@@H]2C(=O)[O-].[Na+] [Methicillin (sodium salt)] | 16% | 1 |  | 
12 | CC(=O)c1ccccc1O [2'‐Hydroxyacetophenone] | 0% | 1 |  | 
13 | CC(=O)[O-].CC(=O)[O-].O.O.O.O.[Mg+2] [Magnesium acetate tetrahydrate] | 2% | 0 |  | 
14 | COc1ccc(-c2oc3c(CC=C(C)C)c(O)cc(O)c3c(=O)c2O[C@@H]2O[C@@H](C)[C@H](O)[C@@H](O)[C@H]2O)cc1 [Baohuoside I] | 0% | 0 |  | 
15 | COc1ccc2c3ccnc4ccc(=O)n(c2c1)c43 [9‐Methoxycanthin‐6‐one] | 0% | 22 |  | 
16 | C/C=C/C=C/C=C\CC/C=C/C(=O)NCC(C)(C)O [Hydroxy‐α‐sanshool] | 3% | 0 |  | 
17 | CNC(=O)Oc1ccc2c(c1)[C@]1(C)CCN(C)[C@@H]1N2C.O=C(O)c1ccccc1O [Physostigmine (salicylate)] |  |  | 0 | 0
18 | CCN1C[C@@]2(COC)[C@H]3[C@@H](OC)[C@H]4[C@@H]1[C@]3([C@@H](OC)C[C@H]2OC(C)=O)[C@@H]1C[C@@]2(O)[C@H](OC(=O)c3ccccc3)[C@@H]1[C@]4(OC(C)=O)[C@@H](O)[C@@H]2OC [Flaconitine] | 13% and 5% |  |  | 
19 | O=CN1C[C@@H]2C[C@H](C1)c1cccc(=O)n1C2 [N‐Formylcytisine] | 0% | 0 |  | 
20 | CC(C)=CCC/C(C)=C/Cc1cc(-c2coc3cc(O)ccc3c2=O)ccc1O [Corylifol A] | 40% | 4 |  | 

Row | Compound | Percentage of motility inhibition 0 h [1] | Percentage of motility inhibition 24 h [2] [%] | Percentage of motility inhibition 0 h (110 µM) [%] | Percentage of motility inhibition 24 h (110 µM) [%]
21 | CCc1ccc(O)c2cc3c(nc12)-c1cc2c(c(=O)n1C3)COC(=O)[C@]2(O)CC [12‐Ethyl‐9‐hydroxycamptothecin] | 16% | 27 |  | 
22 | Colistin (sulfate) | 14% | 0 |  | 
23 | O=c1cc(-c2ccccc2)oc2cc(O[C@@H]3O[C@H](CO)[C@@H](O)[C@H](O)[C@H]3O)c(O)c(O)c12 [Oroxin A] | 0% | 1 |  | 
24 | C1=C2CCCN[C@H]2[C@@H]2C[C@H]1[C@H]1CCCCN1C2 [Aloperine] | 20% | 0 |  | 
25 | C1CNCCN1.O.O.O.O.O.O [Piperazine (hexahydrate)] | 58% | 12 |  | 
26 | C=C1[C@H](O)C[C@H]2[C@@H](/C=C(\C)C(=O)[C@@]3(O)C[C@H](C)[C@H](O)[C@@H]3[C@H]1O)C2(C)C [7beta-Hydroxylathyrol] | 6% | 14 |  | 
27 | CO[C@@]1(NC(=O)C(C(=O)[O-])c2ccc(O)cc2)C(=O)N2C(C(=O)[O-])=C(CSc3nnnn3C)CO[C@@H]21.[Na+].[Na+] (some centres unmarked) [Moxalactam (sodium salt)] | 22% | 8 |  | 
28 | NCCC[C@H](N)C(=O)O [L-Ornithine] | 2% | 4 |  | 
29 | COc1cc2c(cc1OC)[C@@H](Cc1ccc(O)c(Oc3cc4c(cc3OC)CCN(C)[C@@H]4Cc3ccc(O)cc3)c1)N(C)CC2 [Liensinine] | 34% | 8 |  | 
30 | CO[C@H]1C[C@H](O[C@H]2[C@H](C)O[C@@H](O[C@@H]3/C(C)=C/C[C@@H]4C[C@@H](C[C@]5(C=C[C@H](C)[C@@H](C6CCCCC6)O5)O4)OC(=O)[C@@H]4C=C(C)[C@@H](O)[C@H]5OC/C(=C\C=C\[C@@H]3C)[C@]54O)C[C@@H]2OC)O[C@@H](C)[C@@H]1O [Doramectin] | 66% | 49 |  | 
31 | O=c1c(O[C@@H]2O[C@H](CO)[C@@H](O)[C@H](O)[C@H]2O[C@@H]2OC[C@@H](O)[C@H](O)[C@H]2O)c(-c2ccc(O)cc2)oc2cc(O)cc(O)c12 [Leucoside] | 9% | 8 |  | 
32 | CC(C)=CCC[C@@](C)(O)[C@H]1CC[C@]2(C)[C@@H]1[C@H](O)C[C@@H]1[C@@]3(C)CC[C@H](O[C@@H]4O[C@H](CO)[C@@H](O)[C@H](O)[C@H]4O)C(C)(C)[C@@H]3CC[C@]12C [20(R)-Ginsenoside Rh2] | 11% | 6 |  | 
33 | N=C(NCCCCCCNC(=N)NC(=N)Nc1ccc(Cl)cc1)NC(=N)Nc1ccc(Cl)cc1.O=C(O)[C@H](O)[C@@H](O)[C@H](O)[C@H](O)CO.O=C(O)[C@H](O)[C@@H](O)[C@H](O)[C@H](O)CO [Chlorhexidine (digluconate)] | 39% | 46 |  | 
34 | CCOc1ccc2ccccc2c1C(=O)N[C@@H]1C(=O)N2[C@@H]1SC(C)(C)[C@@H]2C(=O)[O-].O.[Na+] [Nafcillin (sodium monohydrate)] | 12% | 2 |  | 
35 | Capreomycin (sulfate) | 12% | 0 |  | 
36 | CC(C)=CCC[C@]1(C)CC[C@]2(C)[C@H]3CC[C@@]4(C)[C@@H](CCC(=O)[C@@H]4C)[C@]3(C)CC[C@@]2(C)C1 [Shionone] | 24% | 52 |  | 
37 | COc1cc(O)c2c(=O)cc(-c3ccc(O)c(O)c3)oc2c1 [Hydroxygenkwanin] | 11% | 13 |  | 
38 | (‐)‐Sparteine | 0% | 4 |  | 
39 | CN[C@H](CC(C)C)C(=O)N[C@H]1C(=O)N[C@@H](CC(N)=O)C(=O)N[C@H]2C(=O)N[C@H]3C(=O)N[C@H](C(=O)N[C@H](C(=O)O)c4cc(O)cc(O)c4-c4cc3ccc4O)[C@H](O[C@H]3C[C@](C)(N)[C@@H](O)[C@H](C)O3)c3ccc(c(Cl)c3)Oc3cc2cc(c3O[C@@H]2O[C@H](CO)[C@@H](O)[C@H](O)[C@H]2O[C@H]2C[C@](C)(NCc3ccc(-c4ccc(Cl)cc4)cc3)[C@@H](O)[C@H](C)O2)Oc2ccc(cc2Cl)[C@H]1O.O=P(O)(O)O.O=P(O)(O)O [Oritavancin (diphosphate)] | 34% | 8 |  | 
